Patent US12077503B2, “Substituted cyclic amides and their use as herbicides” (FMC CORPORATION, priority 2015, dated 2024)

Columns and labels:
Experiment in all cases: Test C preemergence
Type in all cases: in vivo
Conditions in all cases: scale 0 to 100, 0 no effect, 100 complete control
[1] = test system: blackgrass (Alopecurus myosuroides)
Excerpt: (§1) Seeds of plant species selected from blackgrass (Alopecurus myosuroides), ryegrass, Italian (Italian ryegrass, Lolium multiflorum), wheat (winter wheat, Triticum aestivum), Galium (catchweed bedstraw, Galium aparine), corn (Zea mays), crabgrass, large (large crabgrass, Digitaria sanguinalis), foxtail, giant (giant foxtail, Setaria faberii), johnsongrass (Sorghum halepense), lambsquarters (Chenopodium album), morningglory (Ipomoea coccinea), nutsedge, yellow (yellow nutsedge, Cyperus esculentus), pigweed (Amaranthus retroflexus), ragweed (common ragweed, Ambrosia elatior), soybean (Glycine max), barnyardgrass (Echinochloa crus-galli), oilseed rape (Brassica napus), waterhemp (common waterhemp, Amaranthus rudis) and velvetleaf (Abutilon theophrasti) were planted into a blend of loam soil and sand and treated preemergence with test chemicals formulated in a non-phytotoxic solvent mixture which included a surfactant.
(§2) At the same time, plants selected from these crop and weed species and also Kochia (Kochia scoparia), oat, wild (wild oat, Avena fatua), and chickweed (common chickweed, Stellaria media) were planted in pots containing Sunshine Redi-Earth® planting medium comprising spaghnum peat moss, vermiculite, starter nutrients and dolomitic limestone and treated with postemergence applications of test chemicals formulated in the same manner. Plants ranged in height from 2 to 18 cm (1- to 4-leaf stage) for postemergence treatments. Treated plants and controls were maintained in a greenhouse for 13 to 15 d, after which time all species were compared to controls and visually evaluated. Plant response ratings, summarized in Table C, are based on a scale of 0 to 100 where 0 is no effect and 100 is complete control. A dash (-) response means no test result.

[2] = test system: barnyardgrass (Echinochloa crus-galli)
Excerpt: as §1, §2

[3] = test system: soybean (Glycine max)
Excerpt: as §1, §2

[4] = test system: nutsedge, yellow (yellow nutsedge, Cyperus esculentus)
Excerpt: as §1, §2

[5] = test system: corn (Zea mays)
Excerpt: as §1, §2

[6] = test system: morningglory (Ipomoea coccinea)
Excerpt: as §1, §2

[7] = test system: ragweed (common ragweed, Ambrosia elatior)
Excerpt: as §1, §2

[8] = test system: foxtail, giant (giant foxtail, Setaria faberii)
Excerpt: as §1, §2

[9] = test system: pigweed (Amaranthus retroflexus)
Excerpt: as §1, §2

[10] = test system: johnsongrass (Sorghum halepense)
Excerpt: as §1, §2

[11] = test system: lambsquarters (Chenopodium album)
Excerpt: as §1, §2

[12] = test system: oilseed rape (Brassica napus)
Excerpt: as §1, §2

[13] = test system: ryegrass, Italian (Italian ryegrass, Lolium multiflorum)
Excerpt: as §1, §2

[14] = test system: waterhemp (common waterhemp, Amaranthus rudis)
Excerpt: as §1, §2

[15] = test system: crabgrass, large (large crabgrass, Digitaria sanguinalis)
Excerpt: as §1, §2

[16] = test system: velvetleaf (Abutilon theophrasti)
Excerpt: as §1, §2

[17] = test system: wheat (winter wheat, Triticum aestivum)
Excerpt: as §1, §2

CN1CC(c2cccc(OC(F)(F)C(F)F)c2)C(C(=O)Nc2cccc(F)c2F)C1=O (stereo not drawn) [Compound 392]
Plant response rating, Blackgrass ([1]; 31 g ai/ha): 20
Plant response rating, Blackgrass ([1]; 62 g ai/ha): 45
Plant response rating, Blackgrass ([1]; 125 g ai/ha): 70
Plant response rating, Blackgrass ([1]; 250 g ai/ha): 60
Plant response rating, Barnyardgrass ([2]; 31 g ai/ha): 90
Plant response rating, Barnyardgrass ([2]; 62 g ai/ha): 90
Plant response rating, Barnyardgrass ([2]; 125 g ai/ha): 90
Plant response rating, Barnyardgrass ([2]; 250 g ai/ha): 95
Plant response rating, Soybean ([3]; 62 g ai/ha): 100
Plant response rating, Soybean ([3]; 125 g ai/ha): 15
Plant response rating, Soybean ([3]; 250 g ai/ha): 5
Plant response rating, Nutsedge, Yellow ([4]; 31 g ai/ha): 0
Plant response rating, Nutsedge, Yellow ([4]; 62 g ai/ha): 0
Plant response rating, Nutsedge, Yellow ([4]; 125 g ai/ha): 0
Plant response rating, Nutsedge, Yellow ([4]; 250 g ai/ha): 0
Plant response rating, Corn ([5]; 31 g ai/ha): 45
Plant response rating, Corn ([5]; 62 g ai/ha): 65
Plant response rating, Corn ([5]; 125 g ai/ha): 55
Plant response rating, Corn ([5]; 250 g ai/ha): 75
Plant response rating, Morningglory ([6]; 31 g ai/ha): 0
Plant response rating, Morningglory ([6]; 62 g ai/ha): 0
Plant response rating, Morningglory ([6]; 125 g ai/ha): 0
Plant response rating, Morningglory ([6]; 250 g ai/ha): 15
Plant response rating, Ragweed ([7]; 31 g ai/ha): 70
Plant response rating, Ragweed ([7]; 62 g ai/ha): 45
Plant response rating, Ragweed ([7]; 125 g ai/ha): 60
Plant response rating, Ragweed ([7]; 250 g ai/ha): 70
Plant response rating, Foxtail, Giant ([8]; 31 g ai/ha): 90
Plant response rating, Foxtail, Giant ([8]; 62 g ai/ha): 95
Plant response rating, Foxtail, Giant ([8]; 125 g ai/ha): 95
Plant response rating, Foxtail, Giant ([8]; 250 g ai/ha): 95
Plant response rating, Pigweed ([9]; 31 g ai/ha): 75
Plant response rating, Pigweed ([9]; 62 g ai/ha): 80
Plant response rating, Pigweed ([9]; 125 g ai/ha): 85
Plant response rating, Pigweed ([9]; 250 g ai/ha): 90
Plant response rating, Johnsongrass ([10]; 31 g ai/ha): 70
Plant response rating, Johnsongrass ([10]; 62 g ai/ha): 85
Plant response rating, Johnsongrass ([10]; 125 g ai/ha): 85
Plant response rating, Johnsongrass ([10]; 250 g ai/ha): 90
Plant response rating, Lambsquarters ([11]; 31 g ai/ha): 60
Plant response rating, Lambsquarters ([11]; 62 g ai/ha): 70
Plant response rating, Lambsquarters ([11]; 125 g ai/ha): 75
Plant response rating, Lambsquarters ([11]; 250 g ai/ha): 75
Plant response rating, Oilseed Rape ([12]; 31 g ai/ha): 70
Plant response rating, Oilseed Rape ([12]; 62 g ai/ha): 80
Plant response rating, Oilseed Rape ([12]; 125 g ai/ha): 85
Plant response rating, Oilseed Rape ([12]; 250 g ai/ha): 90
Plant response rating, Ryegrass, Italian ([13]; 62 g ai/ha): 40
Plant response rating, Ryegrass, Italian ([13]; 125 g ai/ha): 55
Plant response rating, Ryegrass, Italian ([13]; 250 g ai/ha): 90
Plant response rating, Waterhemp ([14]; 62 g ai/ha): 85
Plant response rating, Waterhemp ([14]; 125 g ai/ha): 90
Plant response rating, Waterhemp ([14]; 250 g ai/ha): 90
Plant response rating, Crabgrass, Large ([15]; 31 g ai/ha): 90
Plant response rating, Crabgrass, Large ([15]; 62 g ai/ha): 95
Plant response rating, Crabgrass, Large ([15]; 125 g ai/ha): 95
Plant response rating, Crabgrass, Large ([15]; 250 g ai/ha): 95
Plant response rating, Velvetleaf ([16]; 62 g ai/ha): 40
Plant response rating, Velvetleaf ([16]; 125 g ai/ha): 60
Plant response rating, Velvetleaf ([16]; 250 g ai/ha): 70
Plant response rating, Wheat ([17]; 62 g ai/ha): 35
Plant response rating, Wheat ([17]; 125 g ai/ha): 80
Plant response rating, Wheat ([17]; 250 g ai/ha): 75
